Values after ≈ are worked out from the molar mass of the structure shown.
Experiments:
[1] = target: T1, Aspartate α-decarboxylase (ADC) (Helicobacter pylori, UniProt P56065); test: HPLC measurement of β-alanine produced from L-aspartate by purified 6xHis-tagged ADC; type: biochemical
T1 construct: gene panD; recombinant 6xHis-tagged ADC, 117 amino acids for ADC plus six for the His-tag (from H. pylori ATCC 43504)

[2] = test system: T2, Acinetobacter baumannii ATCC 19606; test: microbe, parasite or virus in culture; set-up: species or system bacterial species; broth microdilution MIC in Mueller-Hinton broth, visible growth; details: Acinetobacter baumannii, ATCC19606, 20 h
T2 construct: ATCC 19606
Description: (§1) Assessment of the spectrum of activity of malonic acid The spectrum of activity of malonic acid was assessed by determining malonic acid MIC against eight other pathogenic bacterial species (A. baumannii ATCC 19606, B. cenocepacia ATCC BAA-245, E. coli ATCC 25922, E. faecium ATCC 27270, E. faecalis ATCC 19433, K. pneumoniae ATCC 10031, P. aeruginosa ATCC 27856, and S. aureus ATCC 25923) using broth microdilution method, according to the CLSI guidelines ([CLSI, 2018]). Malonic acid solution was serially diluted in Muller-Hinton broth (100 μL) to get concentrations ranging from 6 to 0.19 mg/mL. The inoculum was prepared to be equivalent to 0.5 McFarland standard (containing approximately 1–2 × 10^8 CFU/mL with most species) and was further diluted 1:10 (to get a concentration of 10^7 CFU/mL). 10 μL of the diluted inoculum was transferred to each well to contain 5 × 10^5 CFU/mL. Plates were incubated at 37°C for 20 h. […] The experiment was carried out in triplicates. Malonic acid MIC was determined against other pathogenic species (A. baumannii ATCC 19606, B. cenocepacia ATCC BAA-245, E. coli ATCC 25922, E. faecium ATCC 27270, E. faecalis ATCC 19433, K. pneumoniae ATCC 10031, P. aeruginosa ATCC 27856, and S. aureus ATCC 25923) by the broth microdilution method.

[3] = test system: T3, Burkholderia cepacia ATCC BAA-245; test: microbe, parasite or virus in culture; set-up: species or system bacterial species; broth microdilution MIC in Mueller-Hinton broth, visible growth; details: Burkholderia cepacia, ATCCBAA245, 20 h
T3 construct: ATCC BAA-245
Description: as §1

[4] = test system: T4, Enterococcus faecalis ATCC 19433; test: microbe, parasite or virus in culture; set-up: species or system bacterial species; broth microdilution MIC in Mueller-Hinton broth, visible growth; details: Enterococcus faecalis, ATCC19433, 20 h
T4 construct: ATCC 19433
Description: as §1

[5] = test system: T5, Enterococcus faecium ATCC 27270; test: microbe, parasite or virus in culture; set-up: species or system bacterial species; broth microdilution MIC in Mueller-Hinton broth, visible growth; details: Enterococcus faecium, ATCC27270, 20 h
T5 construct: ATCC 27270
Description: as §1

[6] = test system: T6, Escherichia coli ATCC 25922; test: microbe, parasite or virus in culture; set-up: species or system bacterial species; broth microdilution MIC in Mueller-Hinton broth, visible growth; details: Escherichia coli, ATCC25922, 20 h
T6 construct: ATCC 25922
Description: as §1

[7] = test system: T7, Klebsiella pneumoniae ATCC 10031; test: microbe, parasite or virus in culture; set-up: species or system bacterial species; broth microdilution MIC in Mueller-Hinton broth, visible growth; details: Klebsiella pneumoniae, ATCC10031, 20 h
T7 construct: ATCC 10031
Description: as §1

[8] = test system: T8, Pseudomonas aeruginosa ATCC 27856; test: microbe, parasite or virus in culture; set-up: species or system bacterial species; broth microdilution MIC in Mueller-Hinton broth, visible growth; details: Pseudomonas aeruginosa, ATCC27856, 20 h
T8 construct: ATCC 27856
Description: as §1

[9] = test system: T9, Staphylococcus aureus ATCC 25923; test: microbe, parasite or virus in culture; set-up: species or system bacterial species; broth microdilution MIC in Mueller-Hinton broth, visible growth; details: Staphylococcus aureus, ATCC25923, 20 h
T9 construct: ATCC 25923
Description: as §1

[10] = test system: T10, Helicobacter pylori ATCC 43504; test: microbe, parasite or virus in culture; set-up: MIC against H. pylori by agar dilution and broth microdilution, microaerophilic, visible growth; details: ATCC43504, 72 h
T10 construct: ATCC 43504
Description: (§2) The MIC of malonic acid was determined by agar dilution and broth microdilution methods, against H. pylori ATCC 43504 and H. pylori HPM001 strains. Malonic acid (Loba, India) was dissolved in distilled water to the desired concentration, sterilized by a […] syringe filter, and used within 72 h of preparation. Inocula for MIC testing were prepared by suspending colonies in saline to reach an optical density equivalent to 2.0 McFarland turbidity standard (approximately 1×10^7 to 1×10^8 CFU/mL) ([CLSI, 2015]). The culture media used in MIC determination were freshly prepared, according to the manufacturer’s instruction, and supplemented with 1% yeast extract (LabM, United Kingdom) to enhance bacterial growth ([Walsh and Moran, 1997]). MIC determination by broth microdilution method was carried out in 96-well round-bottom micro-titre plates. […] The MIC of malonic acid was determined by agar dilution and broth microdilution methods against H. pylori ATCC 43504 and H. pylori HPM001. […] No significant difference was recorded between the MIC of malonic acid against H. pylori ATCC 43504 and H. pylori HPM001 using either the agar (p = 0.8529) or the broth microdilution methods (p = 0.8784). There was also no significant difference between the mean MIC of malonic acid recorded against the tested strains by both methods (p = 0.54).

[11] = test system: T11, Helicobacter pylori HPM001; test: microbe, parasite or virus in culture; set-up: MIC against H. pylori by agar dilution and broth microdilution, microaerophilic, visible growth; details: HPM001, 72 h
T11 construct: HPM001
Description: as §2

T1 sequence (P56065 1-24): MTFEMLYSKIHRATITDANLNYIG
T1 sequence (P56065 25-117): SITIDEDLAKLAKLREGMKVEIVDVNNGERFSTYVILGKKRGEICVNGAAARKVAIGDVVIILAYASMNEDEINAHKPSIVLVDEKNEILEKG

NC(CC(=O)O)C(=O)O [L-aspartate, 2-amino-butanedioic acid]
HPLC measurement of β-alanine produced from L-aspartate by purified 6xHis-tagged [1]: assaying β-alanine, the product of the enzymatic action of recombinant H. pylori 6x-His-tagged ADC on aspartate

O=C(O)CC(=O)O [MA, propanedioic acid]
MIC [2]: 750 µg/mL (≈ 7.21 mM)
MIC [3]: 1000 ± 350 µg/mL (≈ 9.61 mM)
MIC [4]: 625 ± 180 µg/mL (≈ 6.01 mM)
MIC [5]: 1000 ± 350 µg/mL (≈ 9.61 mM)
MIC [6]: 750 µg/mL (≈ 7.21 mM)
MIC [7]: 1250 ± 350 µg/mL (≈ 12 mM)
MIC [8]: 625 ± 180 µg/mL (≈ 6.01 mM)
MIC [9]: 750 µg/mL (≈ 7.21 mM)
MIC [10]: 625 ± 180 µg/mL (≈ 6.01 mM)
MIC [11]: 750 µg/mL (≈ 7.21 mM)

From PMC9746714, “Aspartate α-decarboxylase a new therapeutic target in the fight against Helicobacter pylori infection” (Frontiers in Microbiology, 2022)
